# Reference: patent publication US20250084056A1, “SUBSTITUTED OXOISOINDOLINYL PIPERIDINE-2,6-DIONE COMPOUNDS” (BRISTOL-MYERS SQUIBB COMPANY, priority 2023, published 2025)
# How the values were obtained:
# Phospho-Rb (Ser807/811) = test: Phospho-Retinoblastoma (pRB) Cellular Assay; assay type: cell-based; conditions: Homo sapiens, OVCAR-3, NIH OVCAR3 cells, 24 hours
# How it was run: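 Phospho-Rb (Ser807/811) kit read-out on EnVision after lysis (≥4 h, room temperature, dark) of OVCAR3 cells exposed to compound dilutions for 24 h. IC50 and maximum response Ymax are relative to a 10 μM reference compound defining 100%.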
# [1] = tested on: MKN1 gastric carcinoma xenograft model; test: In vivo xenograft tumor efficacy study, MKN1; parameters: species or system mice
# Cyclin E1 = Cyclin E1 (Homo sapiens, UniProt P24864+Q96SW2); test: Cellular degradation of Cyclin E1 (Western blot) in HCC1569 cells; assay type: cell-based; parameters: endogenous in cells; host or cells: HCC1569 (ATCC CRL-2330); conditions: HCC1569 cancer cells, 24 h, FIG. 1A
# Sequence of Cyclin E1 (P24864 whole entry): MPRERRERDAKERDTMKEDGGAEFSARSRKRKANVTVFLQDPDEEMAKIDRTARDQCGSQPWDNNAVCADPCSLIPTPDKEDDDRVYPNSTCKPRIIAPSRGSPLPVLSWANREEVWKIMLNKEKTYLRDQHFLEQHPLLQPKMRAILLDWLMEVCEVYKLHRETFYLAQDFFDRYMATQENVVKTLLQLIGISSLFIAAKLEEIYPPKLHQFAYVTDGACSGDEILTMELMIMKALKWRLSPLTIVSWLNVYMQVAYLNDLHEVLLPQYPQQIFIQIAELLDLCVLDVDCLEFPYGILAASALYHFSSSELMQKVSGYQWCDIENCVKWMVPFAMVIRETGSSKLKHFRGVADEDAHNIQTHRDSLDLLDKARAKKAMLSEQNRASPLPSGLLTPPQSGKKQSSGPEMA
# Sequence of Cyclin E1 (Q96SW2 whole entry): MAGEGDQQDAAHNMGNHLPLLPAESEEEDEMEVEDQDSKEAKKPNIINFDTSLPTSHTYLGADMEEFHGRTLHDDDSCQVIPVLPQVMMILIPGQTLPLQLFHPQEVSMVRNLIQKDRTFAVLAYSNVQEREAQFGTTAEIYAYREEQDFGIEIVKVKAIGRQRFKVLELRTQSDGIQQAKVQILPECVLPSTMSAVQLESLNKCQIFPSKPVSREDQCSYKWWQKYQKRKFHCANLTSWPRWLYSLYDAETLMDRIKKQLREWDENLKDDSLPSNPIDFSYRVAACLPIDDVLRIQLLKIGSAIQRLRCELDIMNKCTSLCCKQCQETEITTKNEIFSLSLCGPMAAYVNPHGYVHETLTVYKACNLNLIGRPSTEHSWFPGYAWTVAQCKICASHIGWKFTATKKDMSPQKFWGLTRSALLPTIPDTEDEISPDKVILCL
# Sequence of Cyclin E1 (Q16531 whole entry partner): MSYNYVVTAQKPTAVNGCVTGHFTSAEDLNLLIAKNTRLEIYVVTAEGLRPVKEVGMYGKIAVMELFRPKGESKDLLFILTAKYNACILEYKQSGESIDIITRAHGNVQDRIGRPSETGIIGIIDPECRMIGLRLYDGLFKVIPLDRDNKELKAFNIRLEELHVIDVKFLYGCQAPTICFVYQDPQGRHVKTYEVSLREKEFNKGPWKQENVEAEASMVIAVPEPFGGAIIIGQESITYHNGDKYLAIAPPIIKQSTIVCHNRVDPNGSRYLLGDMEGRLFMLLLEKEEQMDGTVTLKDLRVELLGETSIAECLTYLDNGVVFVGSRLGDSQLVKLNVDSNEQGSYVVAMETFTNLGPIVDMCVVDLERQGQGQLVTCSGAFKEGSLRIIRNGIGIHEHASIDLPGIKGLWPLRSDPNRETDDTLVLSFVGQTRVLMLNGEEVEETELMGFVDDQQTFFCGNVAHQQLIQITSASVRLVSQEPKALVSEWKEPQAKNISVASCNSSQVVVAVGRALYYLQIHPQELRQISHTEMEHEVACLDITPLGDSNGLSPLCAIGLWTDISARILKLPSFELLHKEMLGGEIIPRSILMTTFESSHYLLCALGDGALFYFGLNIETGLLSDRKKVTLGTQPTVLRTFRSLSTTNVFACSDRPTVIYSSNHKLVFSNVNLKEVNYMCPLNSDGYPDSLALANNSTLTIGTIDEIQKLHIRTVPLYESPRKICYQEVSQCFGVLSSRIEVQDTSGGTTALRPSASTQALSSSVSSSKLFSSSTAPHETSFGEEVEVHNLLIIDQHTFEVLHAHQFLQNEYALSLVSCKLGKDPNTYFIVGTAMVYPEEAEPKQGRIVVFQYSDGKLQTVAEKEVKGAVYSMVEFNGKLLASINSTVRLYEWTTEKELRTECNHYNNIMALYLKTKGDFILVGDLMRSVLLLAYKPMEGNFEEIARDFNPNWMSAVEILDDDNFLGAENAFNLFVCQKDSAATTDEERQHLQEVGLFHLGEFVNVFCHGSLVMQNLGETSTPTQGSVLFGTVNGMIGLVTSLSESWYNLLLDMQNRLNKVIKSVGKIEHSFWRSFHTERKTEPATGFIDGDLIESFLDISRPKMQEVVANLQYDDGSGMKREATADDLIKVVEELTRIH
# Experimental: (§1) The assay measured the ability of the compound to degrade Cyclin E1, inhibit RB phosphorylation, and to determine the selectivity against degradation of GSPT1 in cancer cells in vitro. HCC1569 cells (ATCC #CRL-2330) were cultured in RPMI media (Gibco, catalog A104910) supplemented with 10% FBS (Gibco, catalog 10091148). Cells were plated in tissue culture-treated 6 well plates at a density of 0.5 million cells per well in 2 mL media. The cells were then incubated overnight in a cell culture incubator (5% CO2 and 37° C.) and allowed to attach to the plate. The following day cells were dosed with compounds at the desired concentrations. Compounds were first resuspended in DMSO to make 10 mM stock, and 20 μM stock was prepared by diluting 10 mM stock in culture media. […] Total protein concentration was measured using a BCA assay kit (Thermo Scientific, cat #P123227). […] Protein was then detected by incubating blots with 2 mL of HRP detection reagent (Thermo scientific cat #A38556) for one minute at room temperature. Excess reagent was drained and gently removed on a Kimwipe and the chemiluminescence signal was detected using Fluorchem imaging system. […] Relative quantification of western blots was performed using ImageJ software, data was then normalized to loading control (β-Actin) first and then to the DMSO-treated sample. […]
# GSPT1 = GSPT1 (Homo sapiens, UniProt P15170+Q96SW2); test: Degradation of GSPT1 (Western blot) in HCC1569 cells; assay type: cell-based; parameters: endogenous in cells; host or cells: HCC1569 (ATCC CRL-2330); conditions: HCC1569 cancer cells, 24 h, up to a concentration of 10 μM, FIG. 1C
# Sequence of GSPT1 (P15170 whole entry): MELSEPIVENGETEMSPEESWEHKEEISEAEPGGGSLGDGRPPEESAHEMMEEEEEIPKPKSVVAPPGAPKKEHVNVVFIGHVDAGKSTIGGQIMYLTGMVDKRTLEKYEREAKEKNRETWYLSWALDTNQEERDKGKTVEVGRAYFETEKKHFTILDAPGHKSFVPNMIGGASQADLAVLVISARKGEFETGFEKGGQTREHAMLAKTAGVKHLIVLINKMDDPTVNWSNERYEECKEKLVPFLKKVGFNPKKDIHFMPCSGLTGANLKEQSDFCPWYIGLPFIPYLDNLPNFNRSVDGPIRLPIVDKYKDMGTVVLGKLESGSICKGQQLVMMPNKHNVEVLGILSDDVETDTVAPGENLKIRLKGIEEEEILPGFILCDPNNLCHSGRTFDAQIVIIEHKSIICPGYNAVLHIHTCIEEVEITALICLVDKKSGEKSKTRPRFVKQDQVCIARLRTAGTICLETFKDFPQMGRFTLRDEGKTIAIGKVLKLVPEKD
# Sequence of GSPT1 (Q96SW2 whole entry): as the sequence (Q96SW2 whole entry) above
# Sequence of GSPT1 (Q16531 whole entry partner): as the sequence (Q16531 whole entry partner) above
# Experimental: as §1
structure (smiles),measurement,setting,value
"COc1c(COC(=O)Nc2ccc(Oc3ccc(F)c(F)c3)cc2)ccc2c1C(=O)N([C@H]1CCC(=O)NC1=O)C2 (single isomer, unassigned) [Example 35, {2-[(3 S)-2,6-dioxopiperidin-3-yl]-4-methoxy-3-oxo-2,3-dihydro-1H-isoindol-5-yl}methyl N-[4-(3,4-difluorophenoxy)phenyl]carbamate]",IC50,Phospho-Rb (Ser807/811); concentration giving 50% response,85 nM
same,Emax,"Phospho-Rb (Ser807/811); maximum response, reference compound at 10 μM = 100%, read-out: pRB Ymax",114%
same,tumor growth inhibition (TGI),"[1]; MKN1 gastric carcinoma xenograft, 30 mpk, QDx28 (as printed in text)",95%
same,"Tumor efficacy, TGI (tumor growth inhibition)","[1]; MKN1 stomach, 10 mg/kg PO, QDx28",95% TGI
same,anti-tumor activity,"[1]; MKN1 xenografts, repeated dosing",dose-dependent anti-tumor activity
same,degradation of Cyclin E1 protein,Cyclin E1,induced degradation of Cyclin E1 protein in a dose dependent manner
same,degradation of GSPT1 protein,GSPT1,did not significantly degrade GSPT1 protein
